Data set [1] deals with Sarcoma 180 cells. The data set is described as follows: Antitumor action, Sarcoma 180 subcutaneous in ICR mice, intravenous dosing, tumor proliferation inhibition (Test Example 7). In kind it is in vivo. The note with it: 0.3 mg/mouse i.v. 9 times; tumor weight after 21 days. On the procedure:
(§1) Antitumor action of the compounds of Working Examples
ICR mice (a group consisting of 5 mice) were inoculated subcutaneously with 1×10^5 Sarcoma 180 cells per mouse, and given intravenously 0.3 mg/mouse of a compound of a Working Example dissolved in physiological saline 9 times in total, i.e. 8, 9, 10, 13, 14, 15, 16, 17, and 20 days after inoculation. After 21 days, the tumor tissue was extirpated and the tumor weight was weighed. Shown in Table 7 is tumor proliferation inhibition ratio as compared with the untreated control group.

Data set [2] has as its system Sarcoma 180 cells. The data set is described as follows: Antitumor action, Sarcoma 180 subcutaneous in ICR mice, oral dosing (Test Example 9). In kind it is in vivo. As to conditions: 0.3 mg/mouse orally eight times, after 20 days. The method, then: Antitumor action of the compounds of Working Examples 8 and 24
ICR mice (a group consisting of 5 mice) were inoculated subcutaneously at the dorsolateral area with […] 1×10^6 Sarcoma 180 cells per mouse, and given orally 0.3 mg/mouse of the compound of Example 8 or the compound of Example 24 eight times in total, i.e. 8th, 9th, 10th, 13th, 14th, 15th, 16th, and 17th day after inoculation. After 20 days the tumor tissue was extirpated and the tumor weight was weighed. Shown in Table 9 is tumor proliferation inhibition ratio against the untreated control.

The test system of data set [3] is Sarcoma 180 cells. The data set is described as follows: Antitumor action, Sarcoma 180 intraperitoneal in ICR mice, life-span and survivors on 40th day (Test Example 1). The format is in vivo. As to conditions: 0.33 mg/mouse i.p. three times; for Life-span prolongation ratio (T/C, %): only related to mice found dead. On the procedure:
Antitumor action of the compounds in Working Examples
ICR mice (a group consisting of five mice) were inoculated intraperitoneally with 1×10^5 Sarcoma 180 cells per mouse, and then given intraperitoneally 0.33 mg/mouse of a compound dissolved in physiological saline, three times, i.e. 1 hour, 1 day and 2 days after inoculation. Reference compound IV, Va or Vb was given to mice under the same conditions. Shown in Table 1 are the life-span prolongation ratio against the untreated control group and the number of survived mice on the 40th day after the initiation of the test.

In data set [4] the test system is Platelet aggregation caused by PAF. The data set is described as follows: Inhibition of PAF-induced platelet aggregation in rabbit PRP (Test Example 5). In kind it is cell-based. The note with it: Oryctolagus cuniculus, PAF 1×10^-8 M, read-out: inhibition ratio (%) of PAF-induced platelet aggregation; for inhibition at 30 µM: 3 × 10^-5 M; for inhibition at 3 µM: 3 × 10^-6 M. The method, then:
Blood was collected directly from a male rabbit, using a syringe containing 3.15% of citric acid (at a ratio of 1 part to 9 parts of blood) as an anticoagulant, and centrifuged at 800 rpm for 10 minutes at room temperature to obtain platelet rich plasma (PRP). The remaining blood was centrifuged further at 3000 rpm for 10 minutes to obtain platelet poor plasma (PPP) as the supernatant. By dilution of PRP with PPP, the platelet count was adjusted to about 500,000 cells/μl. After 250 μl of the resulting PRP was stirred at 37° C. for 2 minutes, a certain amount of the test compound was added, and the mixture was stirred for further 2 minutes, and then 1×10^-8 M of PAF was added. Platelet aggregation was measured by using a platelet aggregometer (manufactured by Rika Denki Co. in Japan). The aggregation-inhibiting activity of a test compound was determined from the inhibition ratio against maximal transmittance (maximal aggregation ratio) caused by PAF in the control PRP.

The subject of data set [5] is Sarcoma 180 cells. The data set is described as follows: Antitumor action, Sarcoma 180 intraperitoneal in ICR mice, life-span and survivors on 60th day (Test Example 6). In kind it is in vivo. The note with it: Sarcoma-180, ip, 1440 h, 0.33 mg/mouse i.p. three times. On the procedure: as §1
ICR mice (a group consisting of five mice) were inoculated intraperitoneally with 1×10^5 Sarcoma 180 cells per mouse, and then given intraperitoneally 0.33 mg/mouse of a compound dissolved in physiological saline, three times, i.e. 1 hour, 1 day and 2 days after inoculation. Shown in Table 6 are the life-span prolongation ratio against the untreated control group and the number of survived mice on the 60th day after the initiation of the test.

The subject of data set [6] is macrophages. The note with it: even at about 1000 times concentration of that of PAF; cited from earlier work.
Data set [7] relates to Sarcoma 180 cells. The data set is described as follows: Antitumor action, Sarcoma 180 subcutaneous in ICR mice, intravenous dosing, tumor proliferation inhibition (Test Example 2). The format is in vivo. As to conditions: 0.3 mg/mouse i.v. 9 times; tumor weight after 21 days. On the procedure: (§2) Antitumor action of the compound of Working Example 8
ICR mice (a group consisting of 5 mice) were inoculated subcutaneously with 1×10^6 Sarcoma 180 cells per mouse, and given intravenously 0.03 mg/mouse or 0.3 mg/mouse of the compound of Working Example 8 dissolved in physiological saline 9 times in total, i.e. 8, 9, 10, 13, 14, 15, 16, 17, and 20 days after inoculation. The Reference compound (IV), 0.3 mg/mouse, was given under the same conditions. After 21 days, the tumor tissue was extirpated and the tumor weight was weighed. Shown in Table 2 is tumor proliferation inhibition ratio as compared with the untreated control group.

The conditions of data set [8]: unlike PAF; cited from earlier work.
Data set [9] deals with mouse mammary carcinoma cells MM46. The data set is described as follows: Antitumor action, MM46 intraperitoneal in C3H mice, life-span and survivors on 40th day (Test Example 3). The note with it: 0.25 mg/mouse once a day for 4 days. In kind it is in vivo. On the procedure:
as §2
C3H mice (a group consisting of 5 mice) were inoculated intraperitoneally with 1×10^4 mouse mammary carcinoma cells MM46 per mouse, and given 0.25 mg/mouse of the compound of Working Example 8 dissolved in physiological saline once a day for 4 consecutive days starting from the second day after the inoculation. The Reference compound (IV) was given under the same conditions. Shown in Table 3 are the life-span prolongation ratio against the untreated control group and the number of survived mice on the 40th day after initiation of the test.

For data set [10] the following is noted: due to PAF-related structure; cited from earlier work.

For the compound `COC(COCCCCCCCCCCCCC1CCCCC1)COCCOCC[N+](C)(C)C` (centres unmarked) [Example 24, 2-[2-[3-(12-Cyclohexyl)dodecyloxy-2-methoxypropyloxy]ethoxy]ethyltrimethylammonium chloride], in data set [1], the “Inhibition ratio (1-T/C) (%)” value is 78%. Further, the “Weight of tumor” value in data set [2] is recorded as 0.35 ± 0.15 g. Besides, the “Inhibition ratio (%)” value in data set [2] (against untreated control) is 75%. In data set [3], the “No. of survivors/No. of mice tested” value was 3/5 and the “Life-span prolongation ratio (T/C, %)” value stood at 262%. Also, in data set [4], the inhibition at 30 µM was determined as 100% and the inhibition at 3 µM was found to be 63%. For the same compound, in [5] (60th day, read-out: No. of survivors/No. of mice tested (converted)), the responders at 0.33 mg is 0%. Besides, in data set [5] (survivors on day 60 not included, read-out: Life-span prolongation ratio (T/C)), the response vs control in vivo at 0.33 mg was determined as 302%.

Turning to lysolecithin, in data set [6], the macrophage activation entry was “cannot activate macrophages”.

As to `CCCCCCCCCCCCCCCCCCOCC(COP(=O)([O-])OCC[N+](C)(C)C)OC` (centres unmarked) [Compound IV, reference compound], the “Inhibition ratio (1-T/C) (%)” value in [7] is listed as 58%. Besides, the antitumor actions result in data set [8] is listed as “antitumor actions”. For the same compound, in data set [3], the “No. of survivors/No. of mice tested” value is 0/5 and the “Life-span prolongation ratio (T/C, %)” value was 162%. For the same compound, in data set [4], the inhibition at 30 µM came out at 0% and the inhibition at 3 µM stood at 0%. Moreover, the inhibition at 0.3 µM in [4] (3 × 10^-7 M) amounted to 0%. Further, the “No. of survivors/No. of mice tested” value in [9] is on record as 0/5. Moreover, the “Life-span prolongation ratio (T/C, %)” value in [9] (survivors not included) was found to be 155%. Moreover, the PAF-like actions result in data set [10] is “serotonin liberation, bronchial constriction, platelet aggregation, and blood pressure lowering”.

The values are drawn from patent US4889953A, “Glycerol derivatives, their production and use” (Takeda Chemical Industries, Ltd., priority 1986, dated 1989).
